# Test results taken from patent US7763732B2, “Indole derivatives” (N.V. Organon, priority 2005, dated 2010).
# Test system: mice
# Test: Formalin paw test in mice
# Type: in vivo
# Settings: Mus musculus, intravenous, 5 min before 5% formalin s.c. into hind paw, Phase 2 = 20-30 min after formalin, read-out: ED50, inhibition of nociceptive behaviour of Phase 2
# Description: Formalin Paw Test In Mice
# Four-six groups of six mice were treated with vehicle and one of four to five doses of the test compound (typically between 0.03, 0.1, 3 and 10 μmol/kg), administered intravenously into the tail vein (vehicle: 10% Tween-80 in saline; injection volume 10 ml/kg). This injection was followed 5 minutes later by 20 μl of 5% formalin, which was administered sub-cutaneously to the dorsum of the left hind paw. Immediately after formalin administration the animal was placed in a test chamber and data acquisition, using a detection device (Automated Nociception Analyser (ANA); Department of Anesthesiology, University of California, San Diego), was started, independently for each chamber. The nociceptive behaviour was measured as the number of counts (licking, lifting, biting and flinching actions) detected within the two phases of nociception (Yaksh et al, 2001). The nociceptive behaviour between 0 and 5 min after formalin injection (Phase 1) and between 20 and 30 min after formalin injection (Phase 2) was recorded and number of counts for each mouse, compared to the mean number of counts for the vehicle treated animals, was calculated. Once values for each mouse were obtained, the mean and s.e.m. were calculated for each treatment group. The percent inhibition data were then used to calculate ED50 values for Phase 1 and Phase 2.
row,SMILES,ED50
1,"CCc1cccc2c(-c3nsc(CN4CCC(C(=O)NCCO)CC4)n3)cn(CC3CCOCC3)c12 [Example 10A, 7-Ethyl-3-[(5-{4-[(N-{2-hydroxy}ethyl)carboxamido]piperidin-1-yl}methyl)-(1,2,4]-thiadiazol-3-yl)-1-(tetrahydropyran-4-yl)methyl-1H-indole]",< 5 µmol/kg
2,"CS(=O)(=O)N(CCO)Cc1nc(-c2cn(CC3CCOCC3)c3c(Cl)cccc23)ns1 [Example 15, 7-Chloro-3-({5-[(N-{2-hydroxy}ethyl)-(N-{methylsulfonyl})amino]methyl}-([1,2,4]-thiadiazol-3-yl))-1-(tetrahydropyran-4-yl)methyl-1H-indole]",< 5 µmol/kg
3,"CN(CC(N)=O)Cc1nc(-c2cn(CC3CCOCC3)c3c(Cl)cccc23)no1 [Example 20, 7-Chloro-3-[(5-{[N-(carboxamido)methyl]-N-methylamino}methyl)-([1,2,4]oxadiazol-3-yl)]-1-(tetrahydropyran-4-yl)methyl-1H-indole]",< 5 µmol/kg
4,O=C(NCCO)C1CCN(Cc2nc(-c3cn(CC4CCOCC4)c4c(Cl)cccc34)no2)CC1 [Example 19],< 5 µmol/kg
